The results in this text go back to patent publication US6743363B2, “Method of bacteriostasis or disinfection for permselective membrane” (Toray Industries, Inc., priority 1998, dated 2004).

Like-named read-outs stand apart in the source and are kept apart here.

The subject of assay [1] is suspension of a solid deposit on a reverse osmosis membrane having been used in seawater desalination. Nature of the assay: Survival rate of cells in 3.5% artificial seawater: suspension of deposit on membrane. In kind it is cell-based. How it is done:
(§1) For comparison, 500 ppm of sodium bisulfite was added in place of sulfuric acid, and the data obtained are also shown in Table 1.

Assay [2] concerns un-identified bacteria as separated from the solid deposit suspension. Put plainly: Survival rate of cells in 3.5% artificial seawater: cells from deposit on membrane. In kind it is cell-based. How it is done: as §1
For a further assay, the system named is E. coli. Put plainly: Survival rate of cells in 3.5% artificial seawater: E. coli. In kind it is cell-based, Escherichia coli. How it is done: as §1
Assay [3] relates to Acid-resistant Bacteria 1.
Assay [4] deals with living cells in the concentrate. As to conditions: Example 1: sulfuric acid pH 3.5 to 4, 30 min/day, running days 1 to 30. From the text: The invention is described concretely with reference to the following Examples, which, however, are not intended to restrict the scope of the invention. In these Examples, the disinfecting effect is represented by the number of living microorganisms, the pressure loss in membrane modules and the consumption of sodium bisulfite (SBS).
Two membrane separation units each having a reverse osmosis membrane of polyamide were driven for seawater desalination through reverse osmosis filtration to produce fresh water. […] In that condition, the two units were continuously driven for 1 month. […] While the units were driven under the condition, the number of the living cells in the concentrate having passed through each unit was counted.

The subject of assay [5] is Escherichia coli K12 IFO 3301. The conditions noted are these: physiological saline 0.9%.
For a further assay, the system named is acid-resistant bacteria. Here is the method:
Two membrane separation systems (systems A and B) each comprising a pre-treatment unit and a membrane separation unit having a reverse osmosis membrane module of polyamide were driven for seawater desalination through reverse osmosis filtration to produce fresh water. In these, a culture of the acid-resistant bacteria having been obtained in Reference Example 3 was added to the pre-treated seawater. […] In those conditions, the two systems were continuously driven for 30 days. […] While the systems were driven under the defined conditions, the number of living cells in the concentrate was counted.

Assay [6] concerns Acid-resistant Bacteria 2.
A further assay relates to marine bacteria. Put plainly: Colonies formed on agar medium for marine bacteria from treated seawater mixture. In kind it is cell-based. As to conditions: 200 ppm of sulfuric acid, pH 2.8, for 2 hours at 20° C.; 0.1 ml plated on agar pH 7; untreated pH 8.5 gave 200.
The subject of assay [7] is Acid-resistant Bacteria 3.
[8] abbreviates: 500 ppm, 2.5 hr, pH 5.9, 20° C.
Where [9] appears, read: 100 ppm, 2.5 hr, pH 5.1, 20° C.
Where [10] appears, read: 120 ppm, 0.5 hr, pH 4.0, 20° C.
Where [11] appears, read: 120 ppm, 2.5 hr, pH 4.0, 20° C.
The mark [12] stands for this setting: 150 ppm, 0.5 hr, pH 3.3, 20° C.
[13] abbreviates: 200 ppm, 0.5 hr, pH 2.9, 20° C.
Setting [14] is: 300 ppm, 0.5 hr, pH 2.5, 20° C.
Setting [15] is: 250 ppm, 0.5 hr, pH 2.6, 20° C.
Where [16] appears, read: 250 ppm, 2.5 hr, pH 2.6, 20° C.
[17] abbreviates: 300 ppm, 0.5 hr, pH 2.6, 20° C.

Description for marine bacteria: 1% of seawater was added to commercially-available, 3.5% artificial seawater having been subjected to pressure disinfection (at 120° C. for 15 minutes), and the pH of the resulting seawater mixture was measured to be 8.5. After having been kept at 20° C. for 2 hours, 0.1 ml of the seawater mixture was applied onto an agar medium for marine bacteria, of which the pH value had been controlled to be 7, and then kept warmed at 20° C.
The pH of the resulting seawater mixture was 2.8. After having been kept at 20° C. for 2 hours, 0.1 ml of the seawater mixture was applied onto an agar medium for marine bacteria, of which the pH value had been controlled to be 7.

Turning to `O=S([O-])O.[Na+]` [Sodium Bisulfite, sodium bisulfite, reference compound], the “Survival Rate (%) Suspension of Deposit on Membrane” value in assay [1] (setting [8]) is 90%. Moreover, the “Survival Rate (%) Cells from Deposit on Membrane” value in assay [2] (setting [8]) was 86%. For the same compound, the “Survival Rate (%) E. coli” value in the assay on E. coli (setting [8]) turned out to be 98%.

On to `O=S(=O)(O)O` [Sulfuric Acid, sulfuric acid], for which the “Survival Rate (%) Suspension of Deposit on Membrane” value is reported as 60% in assay [1] (setting [9]); 37% in assay [1] (setting [10]); 15% in assay [1] (setting [11]); below 1% in assay [1] (setting [12]); below 1% in assay [1] (setting [13]); below 1% in assay [1] (setting [14]). The “Survival Rate (%) Cells from Deposit on Membrane” value in assay [2] (setting [9]) is 81%; in [2] (setting [12]), below 1%; in assay [2] (setting [13]), below 1%; in assay [2] (setting [14]), below 1%. For the same compound, the “Survival Rate (%) Acid-resistant Bacteria 1” value in assay [3] (200 ppm, 1 hr, pH 2.8, 20° C.) was 50%; in [3] (setting [15]), 17%; in assay [3] (250 ppm, 1 hr, pH 2.6, 20° C.) it was below 1%; in [3] (setting [16]) it was below 1%; in assay [3] (setting [17]) it was 8%; in assay [3] (300 ppm, 1 hr, pH 2.4, 20° C.), below 1%. The “Survival Rate (%) E. coli” value in the assay on E. coli (setting [9]) is on record as 107%; in the assay with E. coli (setting [10]), 105%; in the assay on E. coli (setting [11]), 93%; in the assay with E. coli (setting [12]) it was below 1%; in the assay on E. coli (setting [13]) it was below 1%; with E. coli (setting [14]), below 1%. Also, the figures for the “Number of Living Cells in the concentrate, compared with the unit not subjected to the sulfuric acid treatment” value in [4] and in assay [4] (listed as sulfuric acid) were  1/100 or less and 1/100, respectively. Further, the “survival rate of the cells” value in assay [5] (10 ppm of sulfuric acid, pH 4.7, 20° C., 2.5 hours) is on record as at least 90%; in assay [5] (50 ppm of sulfuric acid, pH 3.2, 20° C., 0.5 hours), 90%; in [5] (50 ppm of sulfuric acid, pH 3.2, 20° C., 1 hour) it was 20%; in assay [5] (50 ppm of sulfuric acid, pH 3.2, 20° C., 2.5 hours), at most 1%; in assay [5] (100 ppm of sulfuric acid, 20° C., 0.5 hours), at most 1%. The “Ratio of Living Microbes in Concentrate” value in the assay on acid-resistant bacteria (pH 2.6, 30 minutes a day) was below 1; with acid-resistant bacteria (pH 3.5 to 4.0, 30 minutes a day), 100; with acid-resistant bacteria (pH 3.5 to 4.0, 30 minutes a day, plus pH 2.6, 30 minutes a day (once at intervals of 5 days)), below 1. Besides, the “Survival Rate (%) Acid-resistant Bacteria 2” value in assay [6] (200 ppm, 1 hr, pH 2.8, 20° C.) is 22%; in assay [6] (setting [15]), 33%; in assay [6] (250 ppm, 1 hr, pH 2.6, 20° C.) it was 2%; in assay [6] (setting [16]), below 1%; in assay [6] (setting [17]), 1%; in [6] (300 ppm, 1 hr, pH 2.4, 20° C.), below 1%. Besides, the “Number of Colonies Formed” value with marine bacteria is listed as 3. The “Survival Rate (%) Acid-resistant Bacteria 3” value in [7] (200 ppm, 1 hr, pH 2.8, 20° C.) was below 1%; in assay [7] (setting [15]), 1%; in [7] (250 ppm, 1 hr, pH 2.6, 20° C.), below 1%; in assay [7] (setting [16]) it was below 1%; in assay [7] (setting [17]), below 1%; in [7] (300 ppm, 1 hr, pH 2.4, 20° C.) it was below 1%.
